According to patent publication US8993606B2, “Oral formulations for treating metal overload” (FerroKin BioSciences, Inc., priority 2011, dated 2015):
Like-named read-outs stand apart in the source and are kept apart here.

What was measured:
[1] = Example 9: single-dose study in healthy human subjects 30-75 mg/kg and 20 mg/kg x 2 (PK); format: in vivo; conditions: for Vd/F / AUC(0-inf) / AUC(0-t) / Cmax / half-life / Tmax / CL renal: human; for Vd/F / AUC(0-inf) / AUC(0-t) / Cmax / half-life / Tmax: plasma; for Vd/F: read-out: VZ/F; for CL renal: urine and plasma
Procedure: Example 9 was a single-dose escalating study in healthy volunteers. The objectives of the study were to assess the safety, tolerability, pharmacokinetic, and pharmacodynamics of single ascending doses of Compound 1. The doses tested were 30, 40, 50, 60, and 75 mg/kg once daily and a regimen of 20 mg/kg twice a day, which extended the range of doses evaluated. This Example confirms the earlier results obtained with higher dosage, as described in Example 7.
(§1) This was a single-center, double-blind, placebo-controlled study of ascending single oral doses of Compound 1. Six cohorts of 8 subjects (30 and 50 mg/kg single doses) or 5 subjects (40, 60, and 75 mg/kg single doses and 20 mg/kg×2 doses at 12 hour intervals) were dosed sequentially with Compound 1. Within each cohort, 7 or 4 subjects received Compound 1 and 1 subject received placebo. Subjects in the 20 mg/kg×2 doses cohort received a dose the evening prior to the study day (Day −1), approximately 12 hours prior to dosing on Day 1. The dose administered on Day −1 followed a 2-hour fast and that on Day 1 a 10-hour fast.
A total of 36 subjects were enrolled and all subjects completed the study. The 30 subjects that received active drug comprised the pharmacokinetic (PK) analysis population.
[…] subjects receiving a single dose, blood samples for the measurement of the total (free and iron bound complex) plasma concentrations of Compound 1 were collected before and 0.25, 0.5, 0.75, 1, 1.25, 1.5, 2, 2.5, 4, 8, 12, 24, 48, 72, and 96 hours after dosing. Subjects receiving two doses of 20 mg/kg had blood collected prior and 0.5, 1, 1.5, 2, and 2.5 hours after the first dose. After the second dose in the morning of Day 1, the sampling schedule was identical to that used for subjects receiving a single dose.
In all cohorts, urine was collected in pooled intervals of 0-4, 4-8, 8-12 and 12-24 hours after the dose on Day 1 for the analysis of Compound 1 concentrations.

[2] = tested on: healthy subjects; assay: Safety: single-dose study in healthy subjects (30-75 mg/kg, 20 mg/kg bid); format: in vivo
Procedure: as §1
Thirty-one subjects were enrolled and completed the study: 26 received a single oral dose of Compound 1 [30 (7 subjects), 40 (4 subjects), 50 (7 subjects), 60 (4 subjects) and 75 mg/kg (4 subjects)], 4 subjects previously administered a single dose at 30 and 40 mg/kg received 20 mg/kg bid and 5 received placebo. […] Treatment-emergent adverse events were reported for 13 of the 26 subjects receiving Compound 1 (50%). TEAEs in the active groups included catheter site erythema or hematoma (3 subjects), fatigue (1 subject), headache (2 subjects), dysgueusia (1 subject), presyncope (1 subject), abdominal pain (1 subject), nausea (1 subject), back pain (1 subject), muscle spasm (1 subject), decreased appetite (1 subject), chromaturia (1 subject).

[3] = 20 mg/kg × 2 at 12-hour interval
[4] = oral, 20 mg/kg × 2, for the total dose of 40 mg/kg
[5] = single oral dose 30-75 mg/kg, 20 mg/kg bid

COCCOCCOCCOc1cccc(C2=N[C@@](C)(C(=O)O)CS2)c1O [Compound 1, (S)-4,5-Dihydro-2-[2-hydroxy-3-(3,6,9-trioxadecyloxy)phenyl]-4-methyl-4-thiazolecarboxylate magnesium hydroxide]
CL/F ([1]; 20 mg/kg × 2, calculated with total dose of 40 mg/kg): 235 ± 96.2 mL/min | Ue(0-24) [1, 3]: 805 ± 208 mg | λZ [1, 3]: 0.0744 ± 0.0158 h⁻¹ | dose recovered in the urine over 24-hour post-dose period ([1]; 30 and 40 mg/kg): approximately 55% | Vd/F ([1]; oral, 20 mg/kg × 2, calculated with total dose of 40 mg/kg): 208 ± 136 L | AUC(0-inf) [1, 4]: 231 µg·h/mL | AUC(0-t) [1, 4]: 221 µg·h/mL | Cmax ([1]; oral, 20 mg/kg × 2 at 12-hour interval, for the second dose): 52.9 µg/mL | half-life ([1]; oral, 20 mg/kg × 2 at 12-hour interval, read-out: t1/2 (converted)): 9.64 ± 2.28 h | Tmax ([1]; oral, 20 mg/kg × 2 at 12-hour interval, second dose, median, read-out: tmax): 0.75 h | Tmax ([1]; oral, across cohorts, read-out: median values for Tmax, range): 1 to 1.5 h | half-life ([1]; oral, across cohorts, read-out: t1/2, range): 8.36 to 18.6 h | AUC(0-inf) ([1]; single oral dose 30 mg/kg): 161 µg·h/mL | AUC(0-t) ([1]; single oral dose 30 mg/kg): 155 µg·h/mL | Cmax ([1]; single oral dose 30 mg/kg): 68.2 µg/mL | Tmax ([1]; single oral dose 30 mg/kg, median, read-out: tmax): 1 h | Vd/F ([1]; single oral dose 30 mg/kg): 248 ± 58.8 L | half-life ([1]; single oral dose 30 mg/kg, read-out: t1/2 (converted)): 12.1 ± 3.05 h | AUC(0-inf) ([1]; single oral dose 40 mg/kg): 195 µg·h/mL | AUC(0-t) ([1]; single oral dose 40 mg/kg): 205 µg·h/mL | Cmax ([1]; single oral dose 40 mg/kg): 87.9 µg/mL | Tmax ([1]; single oral dose 40 mg/kg, median, read-out: tmax): 1.38 h | Vd/F ([1]; single oral dose 40 mg/kg): 542 ± 657 L | half-life ([1]; single oral dose 40 mg/kg, read-out: t1/2 (converted)): 18.6 ± 19.2 h | AUC(0-inf) ([1]; single oral dose 50 mg/kg): 236 µg·h/mL | AUC(0-t) ([1]; single oral dose 50 mg/kg): 254 µg·h/mL | Cmax ([1]; single oral dose 50 mg/kg): 91.7 µg/mL | Tmax ([1]; single oral dose 50 mg/kg, median, read-out: tmax): 1.5 h | Vd/F ([1]; single oral dose 50 mg/kg): 338 ± 272 L | half-life ([1]; single oral dose 50 mg/kg, read-out: t1/2 (converted)): 12.8 ± 7.66 h | AUC(0-inf) ([1]; single oral dose 60 mg/kg): 205 µg·h/mL | AUC(0-t) ([1]; single oral dose 60 mg/kg): 204 µg·h/mL | Cmax ([1]; single oral dose 60 mg/kg): 82.3 µg/mL | Tmax ([1]; single oral dose 60 mg/kg, median, read-out: tmax): 1.38 h | Vd/F ([1]; single oral dose 60 mg/kg): 454 ± 363 L | half-life ([1]; single oral dose 60 mg/kg, read-out: t1/2 (converted)): 11 ± 5.99 h | AUC(0-inf) ([1]; single oral dose 75 mg/kg): 247 µg·h/mL | AUC(0-t) ([1]; single oral dose 75 mg/kg): 244 µg·h/mL | Cmax ([1]; single oral dose 75 mg/kg): 84.6 µg/mL | Tmax ([1]; single oral dose 75 mg/kg, median, read-out: tmax): 1.38 h | Vd/F ([1]; single oral dose 75 mg/kg): 342 ± 83.6 L | half-life ([1]; single oral dose 75 mg/kg, read-out: t1/2 (converted)): 8.36 ± 3.84 h | CL renal ([1]; oral, 20 mg/kg × 2 at 12-hour interval, read-out: CLr): 131 ± 18.7 mL/min | CL renal ([1]; oral, not dependent upon dose, read-out: Renal clearance, average): ~140 mL/min | CL renal ([1]; single oral dose 30 mg/kg, read-out: CLr): 139 ± 13.2 mL/min | CL renal ([1]; single oral dose 40 mg/kg, read-out: CLr): 152 ± 18 mL/min | CL renal ([1]; single oral dose 50 mg/kg, read-out: CLr): 103 ± 16.2 mL/min | CL renal ([1]; single oral dose 60 mg/kg, read-out: CLr): 147 ± 28.2 mL/min | CL renal ([1]; single oral dose 75 mg/kg, read-out: CLr): 165 ± 42.7 mL/min | CL/F ([1]; single oral dose 30 mg/kg): 239 ± 17.2 mL/min | Fe(0-24) ([1]; single oral dose 30 mg/kg): 54.8 ± 8.99 % Dose | Ue(0-24) ([1]; single oral dose 30 mg/kg): 1,260 ± 255.3 mg | λZ ([1]; single oral dose 30 mg/kg): 0.0615 ± 0.0200 h⁻¹ | CL/F ([1]; single oral dose 40 mg/kg): 290 ± 73.8 mL/min | Fe(0-24) ([1]; single oral dose 40 mg/kg): 57.1 ± 8.60 % Dose | Ue(0-24) ([1]; single oral dose 40 mg/kg): 1,820 ± 397 mg | λZ ([1]; single oral dose 40 mg/kg): 0.0677 ± 0.0439 h⁻¹ | CL/F ([1]; single oral dose 50 mg/kg): 286 ± 56.1 mL/min | Fe(0-24) ([1]; single oral dose 50 mg/kg): 40.2 ± 8.69 % Dose | Ue(0-24) ([1]; single oral dose 50 mg/kg): 1,500 ± 434 mg | λZ ([1]; single oral dose 50 mg/kg): 0.0664 ± 0.0292 h⁻¹ | CL/F ([1]; single oral dose 60 mg/kg): 435 ± 117.0 mL/min | Fe(0-24) ([1]; single oral dose 60 mg/kg): 33.7 ± 8.37 % Dose | Ue(0-24) ([1]; single oral dose 60 mg/kg): 1,713 ± 480 mg | λZ ([1]; single oral dose 60 mg/kg): 0.0786 ± 0.0393 h⁻¹ | CL/F ([1]; single oral dose 75 mg/kg): 540 ± 237 mL/min | Fe(0-24) ([1]; single oral dose 75 mg/kg): 35.0 ± 15.1 % Dose | Ue(0-24) ([1]; single oral dose 75 mg/kg): 2,199 ± 1,189 mg | λZ ([1]; single oral dose 75 mg/kg): 0.0943 ± 0.0383 h⁻¹ | dose recovered in the urine over 24-hour post-dose period ([1]; the 3 higher doses (50, 60, 75 mg/kg)): approximately 38% | subjects with treatment-emergent adverse events ([2]; 13 of the 26 subjects): 50% | TEAE abdominal pain ([2]; active groups, 26 subjects): 1 subject | TEAE back pain ([2]; active groups, 26 subjects): 1 subject | TEAE catheter site erythema or hematoma ([2]; active groups, 26 subjects): 3 subjects | TEAE chromaturia ([2]; active groups, 26 subjects): 1 subject | TEAE decreased appetite ([2]; active groups, 26 subjects): 1 subject | TEAE dysgueusia ([2]; active groups, 26 subjects): 1 subject | TEAE fatigue ([2]; active groups, 26 subjects): 1 subject | TEAE headache ([2]; active groups, 26 subjects): 2 subjects | TEAE muscle spasm ([2]; active groups, 26 subjects): 1 subject | TEAE nausea ([2]; active groups, 26 subjects): 1 subject | TEAE presyncope ([2]; active groups, 26 subjects): 1 subject | intensity of all AEs ([2]; after treatment): mild intensity | serious side effects in humans ([2]; daily dose higher than 40 mg/kg of body weight): no serious side effects were observed | deaths, SAEs, withdrawals due to AEs [2, 5]: no deaths, SAEs), or withdrawals due to AEs | tolerability [2, 5]: well tolerated
